This note sets out measurements from ChEMBL document CHEMBL3045354, “Synthesis, molecular modeling, and biological evaluation of 1,2,4-triazole derivatives containing pyridine as potential anti-tumor agents” (Med Chem Res, 2013).

One experiment has as its system HepG2. The experiment is described as follows: Antiproliferative activity against Homo sapiens (human) HepG2 cells assessed as growth inhibition after 48 hr by MTT assay. Conditions: HepG2, 48 h. A general note: Tetrazolium dyes change colour on reduction, which living cells bring about.
The test system of experiment [1] is HCT-116. The experiment is described as follows: Antiproliferative activity against Homo sapiens (human) HCT116 cells assessed as growth inhibition after 48 hr by MTT assay. Conditions: HCT-116, 48 h.
The subject of the next experiment is MCF7. The experiment is described as follows: Antiproliferative activity against Homo sapiens (human) MCF7 cells assessed as growth inhibition after 48 hr by MTT assay. Conditions: MCF7, 48 h.
For experiment [2], the system named is HCT-116. As to the kind of experiment: Induction of apoptosis in Homo sapiens (human) HCT116 cells assessed as PARP cleavage at 0.5 to 8 uM by Western blot analysis. Type of experiment: functional, cell-based. A general note: Immunoblotting shows a protein as a band on a membrane.
Experiment [3] relates to HCT-116. The experiment is described as follows: Induction of apoptosis in Homo sapiens (human) HCT116 cells assessed as necrotic cells at 8 uM after 24 hr by Annexin V-FITC/PI staining based flow cytometry (reference value: 0.60%). Type of experiment: functional. (In general: In flow cytometry, cells or beads pass a laser one at a time.)
Experiment [4] has as its system HCT-116. The experiment is described as follows: Induction of apoptosis in Homo sapiens (human) HCT116 cells assessed as late apoptotic cells at 8 uM after 24 hr by Annexin V-FITC/PI staining based flow cytometry (reference value: 2.87%). Type of experiment: functional.
Experiment [5] deals with HCT-116. As to the kind of experiment: Induction of apoptosis in Homo sapiens (human) HCT116 cells assessed as early apoptotic cells at 8 uM after 24 hr by Annexin V-FITC/PI staining based flow cytometry (reference value: 3.73%). Type of experiment: functional.
The test system of experiment [6] is HCT-116. As to the kind of experiment: Induction of apoptosis in Homo sapiens (human) HCT116 cells assessed as viable cells at 8 uM after 24 hr by Annexin V-FITC/PI staining based flow cytometry (reference value: 92.80%). Type of experiment: functional. Conditions: HCT-116, 24 h, read-out: Activity.
Experiment [7] has as its system HCT-116. The experiment is described as follows: Induction of apoptosis in Homo sapiens (human) HCT116 cells assessed as necrotic cells at 2 uM after 24 hr by Annexin V-FITC/PI staining based flow cytometry (reference value: 0.60%). Type of experiment: functional.
Experiment [8] relates to HCT-116. As to the kind of experiment: Induction of apoptosis in Homo sapiens (human) HCT116 cells assessed as late apoptotic cells at 2 uM after 24 hr by Annexin V-FITC/PI staining based flow cytometry (reference value: 2.87%). In kind it is functional.
In experiment [9] the test system is HCT-116. As to the kind of experiment: Induction of apoptosis in Homo sapiens (human) HCT116 cells assessed as early apoptotic cells at 2 uM after 24 hr by Annexin V-FITC/PI staining based flow cytometry (reference value: 3.73%). In kind it is functional.
Experiment [10] concerns HCT-116. The experiment is described as follows: Induction of apoptosis in Homo sapiens (human) HCT116 cells assessed as viable cells at 2 uM after 24 hr by Annexin V-FITC/PI staining based flow cytometry (reference value: 92.80%). Type of experiment: functional. Conditions: HCT-116, 24 h, read-out: Activity.
The test system of experiment [11] is HCT-116. As to the kind of experiment: Induction of apoptosis in Homo sapiens (human) HCT116 cells assessed as necrotic cells at 0.5 uM after 24 hr by Annexin V-FITC/PI staining based flow cytometry (reference value: 0.60%). Type of experiment: functional.
For experiment [12], the system named is HCT-116. The experiment is described as follows: Induction of apoptosis in Homo sapiens (human) HCT116 cells assessed as late apoptotic cells at 0.5 uM after 24 hr by Annexin V-FITC/PI staining based flow cytometry (reference value: 2.87%). In kind it is functional.
Experiment [13] deals with HCT-116. As to the kind of experiment: Induction of apoptosis in Homo sapiens (human) HCT116 cells assessed as early apoptotic cells at 0.5 uM after 24 hr by Annexin V-FITC/PI staining based flow cytometry (reference value: 3.73%). In kind it is functional.
In experiment [14] the test system is HCT-116. As to the kind of experiment: Induction of apoptosis in Homo sapiens (human) HCT116 cells assessed as viable cells at 0.5 uM after 24 hr by Annexin V-FITC/PI staining based flow cytometry (reference value: 92.80%). In kind it is functional. Conditions: HCT-116, 24 h, read-out: Activity.
Experiment [15] has as its system HCT-116. The experiment is described as follows: Induction of apoptosis in Homo sapiens (human) HCT116 cells assessed as increase in cleaved caspase-3 level at 0.5 to 8 uM by Western blot analysis. Type of experiment: functional, cell-based.

Activity calls are given as the source filed them. The rule behind the calls is not given here.

One may read the IC50 as the concentration at which inhibition is half-maximal. Take `O=C(CSc1nnc(-c2ccncc2)n1-c1ccccc1)N/N=C/c1ccc(O)cc1`: the IC50 with HepG2, in the experiment on HCT-116 [1] and in the experiment on MCF7 was > 50 µM throughout.
As to `COc1ccc(/C=N/NC(=O)CSc2nnc(-c3ccncc3)n2-c2ccccc2)cc1`, the IC50 with HepG2 worked out at 27.1 µM; in the experiment on HCT-116 [1], 19.2 µM; with MCF7, 23.7 µM.
Taken in the same sequence, the figures for `c1ccc(CSc2nnc(-c3ccncc3)n2-c2ccccc2)cc1` were 12.9 µM, 16.9 µM and 22.4 µM.
In the case of `O=C(CSc1nnc(-c2ccncc2)n1-c1ccccc1)N/N=C/c1ccc([N+](=O)[O-])cc1`, the IC50 in the experiment on HepG2 was 15.9 µM; in the experiment with HCT-116 [1], 10.2 µM; in the experiment with MCF7 it was 15.3 µM.
Taken in the same sequence, the figures for `Clc1ccc(CSc2nnc(-c3ccncc3)n2-c2ccccc2)cc1` were 16.9 µM, 10.7 µM and 13.3 µM.
The like results for `Clc1cccc(CSc2nnc(-c3ccncc3)n2-c2ccccc2)c1` were, in that order, 11.2 µM, 9.82 µM and 10.5 µM.
For `O=C(CSc1nnc(-c2ccncc2)n1-c1ccccc1)N/N=C/c1cccc(F)c1`, the IC50 in the experiment with HepG2 was 24.4 µM; in the experiment on HCT-116 [1], > 50 µM; with MCF7, > 50 µM.
Consider `O=[N+]([O-])c1ccc(CSc2nnc(-c3ccncc3)n2-c2ccccc2)cc1`, for which the IC50 with HepG2 is > 50 µM; with HCT-116 [1] it was 23.8 µM; in the experiment on MCF7, 22.8 µM.
In the case of `Brc1cccc(CSc2nnc(-c3ccncc3)n2-c2ccccc2)c1`, the result in the experiment on HCT-116 [2] and with HCT-116 [15] was Active. The Activity turned out to be 5.59% in the experiment on HCT-116 [3]; 31.69% in the experiment on HCT-116 [4]; 12.3% in the experiment on HCT-116 [5]; 1.08% in the experiment on HCT-116 [7]; 9.25% with HCT-116 [8]; 11.39% in the experiment with HCT-116 [9]. Besides, the Activity is listed as 0.28% in the experiment on HCT-116 [11], 3.24% in the experiment with HCT-116 [12] and 8.24% in the experiment on HCT-116 [13]. For the same compound, the viability at 8 µM with HCT-116 [6] was 50.4%. In addition, the viability at 2 µM in the experiment on HCT-116 [10] stood at 78.3%. For the same compound, the viability at 0.5 µM with HCT-116 [14] was 88.2%. Further, the IC50 in the experiment on HepG2 came out at 7.04 µM; in the experiment with HCT-116 [1], 8.17 µM; in the experiment with MCF7 it was 10 µM.
With `O=C(CSc1nnc(-c2ccncc2)n1-c1ccccc1)N/N=C/c1cc(Br)ccc1O`, the outcome with HCT-116 [2] and with HCT-116 [15] was Active. Further, the Activity in the experiment on HCT-116 [3] was 3.04%; in the experiment on HCT-116 [4], 38.01%; in the experiment with HCT-116 [5], 27.35%; in the experiment with HCT-116 [7], 2.44%; in the experiment with HCT-116 [8], 12.47%; in the experiment on HCT-116 [9] it was 18.85%. In addition, the Activity in the experiment on HCT-116 [11] amounted to 0.72%; with HCT-116 [12], 3.27%; in the experiment on HCT-116 [13] it was 5.99%. Also, the viability at 8 µM with HCT-116 [6] came out at 31.6%. In addition, the viability at 2 µM in the experiment with HCT-116 [10] came out at 86.2%. For the same compound, the viability at 0.5 µM in the experiment with HCT-116 [14] came out at 90%. Moreover, the results for the IC50 with HepG2, in the experiment with HCT-116 [1] and in the experiment with MCF7 were 4.39 µM, 1.99 µM and 6.46 µM, respectively.
For the compound `O=[N+]([O-])c1ccccc1CSc1nnc(-c2ccncc2)n1-c1ccccc1`, the IC50 in the experiment on HepG2, in the experiment with HCT-116 [1] and in the experiment with MCF7 was > 50 µM throughout.
Turning to `Fc1ccc(CSc2nnc(-c3ccncc3)n2-c2ccccc2)cc1`, the IC50 was found to be 15.6 µM in the experiment with HepG2, 12.8 µM in the experiment on HCT-116 [1] and 21.1 µM in the experiment with MCF7.
Regarding `Fc1ccc(CSc2nnc(-c3ccncc3)n2-c2ccccc2)c(F)c1`, the IC50 in the experiment with HepG2 came to 10.2 µM; in the experiment with HCT-116 [1] it was 11.4 µM; with MCF7, 14.1 µM.
Taken in the same sequence, the figures for `Fc1ccccc1CSc1nnc(-c2ccncc2)n1-c1ccccc1` were > 50 µM, 12 µM and > 50 µM.
Take `O=C(CSc1nnc(-c2ccncc2)n1-c1ccccc1)N/N=C/c1ccccc1`: the IC50 in the experiment with HepG2 came to 18.6 µM; with HCT-116 [1], 14.7 µM; with MCF7, 23.6 µM.
The like results for `O=C(CSc1nnc(-c2ccncc2)n1-c1ccccc1)N/N=C/c1ccc(O)c(O)c1` were, in that order, 16.9 µM, 14.7 µM and 19.7 µM.
Taken in the same sequence, the figures for `O=C(CSc1nnc(-c2ccncc2)n1-c1ccccc1)N/N=C/c1cc(Br)cc(Br)c1O` were 7.59 µM, 4.5 µM and 8.44 µM.
Taken in the same sequence, the figures for `Brc1ccc(CSc2nnc(-c3ccncc3)n2-c2ccccc2)cc1` were 12.9 µM, 11.1 µM and 12.6 µM.
Take `O=[N+]([O-])c1cccc(CSc2nnc(-c3ccncc3)n2-c2ccccc2)c1`: the values for the IC50 in the experiment with HepG2, in the experiment on HCT-116 [1] and with MCF7 were 22 µM, 19.8 µM and 18.3 µM, respectively.
Taken in the same sequence, the figures for `O=C(CSc1nnc(-c2ccncc2)n1-c1ccccc1)N/N=C/c1ccc(F)cc1` were 9.33 µM, 7.04 µM and 12.3 µM.
Turning to `O=C(CSc1nnc(-c2ccncc2)n1-c1ccccc1)N/N=C/C=C/c1ccccc1`, the IC50 turned out to be 8.28 µM in the experiment on HepG2, 6.15 µM in the experiment on HCT-116 [1] and 11.2 µM with MCF7.
As to `O=C(CSc1nnc(-c2ccncc2)n1-c1ccccc1)N/N=C/c1ccccc1F`, the results for the IC50 in the experiment on HepG2, with HCT-116 [1] and in the experiment with MCF7 were 15.2 µM, 18 µM and 22.4 µM, respectively.
For the compound `O=C(CSc1nnc(-c2ccncc2)n1-c1ccccc1)N/N=C/c1ccc(Cl)cc1`, the IC50 with HepG2 came to 11 µM; in the experiment on HCT-116 [1], 5.74 µM; with MCF7, 9.93 µM.
For the compound `Brc1ccccc1CSc1nnc(-c2ccncc2)n1-c1ccccc1`, the IC50 in the experiment with HepG2 was 17.1 µM; in the experiment with HCT-116 [1], 20.2 µM; with MCF7, 16.1 µM.
For the compound `Clc1ccccc1CSc1nnc(-c2ccncc2)n1-c1ccccc1`, the IC50 in the experiment on HepG2 is 15.7 µM; in the experiment with HCT-116 [1], 13.8 µM; in the experiment with MCF7, 18.1 µM.
Taken in the same sequence, the figures for `O=C(CSc1nnc(-c2ccncc2)n1-c1ccccc1)N/N=C/c1ccccc1O` were 11.3 µM, 7.06 µM and 10 µM.
The like results for `Fc1cccc(F)c1CSc1nnc(-c2ccncc2)n1-c1ccccc1` were, in that order, > 50 µM, 22.1 µM and > 50 µM.
Taken in the same sequence, the figures for `O=C(CSc1nnc(-c2ccncc2)n1-c1ccccc1)N/N=C/c1ccc(Br)cc1` were 5.99 µM, 4.5 µM and 7.04 µM.
